A word on the melting point: it is the temperature, or range, at which the solid turns liquid.

Take `O=Cc1cn(Cc2ccc(OCc3ccccc3)cc2)cc1-c1ccccc1`: the melting point lay within 100 to 101 °C.

In the case of `COc1cc(Nc2nccc(-c3cccc(OCCCN4C(=O)c5ccccc5C4=O)c3)n2)cc(OC)c1OC`, the melting point is 209 °C.

With `COc1ccc(C2=NN(CC(=O)c3ccccc3OC)C(=O)[C@H]3CCCC[C@@H]23)cc1OC` (relative stereo), the melting point is 93 to 96 °C.

In the case of `Cc1nn(C)c2nc(N)c(-c3ccc(F)cc3)nc12`, the melting point was in the range of 208 to 210 °C.

In turn, `CSc1ccc(C(=O)CBr)c(F)c1` registered a melting point of 55 to 59 °C.

Molecule `O=C(O)C1=C(c2ccccc2)c2ccccc2CS1` yielded a melting point of 155 to 156 °C.

`Cc1cccc(I)c1C(=O)Nc1ccccc1[N+](=O)[O-]`: the melting point turned out to be 115 °C.

Take `N#CC(c1ccccc1)N1CCN(C2CCCCC2)CC1` (centres undefined): the melting point lay within 79 to 81 °C.

`N=C(NCc1cnc(Cl)s1)N[N+](=O)[O-]` registered a melting point of 160 to 162 °C.

Take `CC1(C)OC2OC(CN3C(=O)C4(COc5cc6c(cc54)OCCO6)c4ccccc43)C3OC(C)(C)OC3C2O1` (centres undefined): the melting point fell in the range of 112 to 118 °C.

As to `NC(=O)c1c(Cl)c(-c2ccccc2)n2c1CN(S(=O)(=O)Nc1ccc(C(F)(F)F)cc1)CC2`, the melting point is 209 to 211 °C.

`N#CC(C#N)=CNc1cc(C(F)(F)F)ccc1Cl` had a melting point of 166 to 169 °C.

Turning to `CCOC(=O)c1c(CC(=O)O)n(-c2ccc(OC(C)C)cc2)c2ccc(Oc3ccc(CCl)cn3)cc12`, the melting point fell in the range of 153 to 155 °C.

With `CC(C)(C)N1C(=O)C2Cc3[nH]cnc3CN2C1=O` (centres undefined), the melting point lay in the range of 156 to 158 °C.

Consider `CCC(=O)NCc1ccc(CN2CCN(c3ncccn3)CC2)cc1`, for which the melting point is 103 to 105 °C.

The molecule `CC(C)(C)C(O)C(=Cc1ccc2ccccc2c1)n1cncn1` (centres undefined) registered a melting point of 122 to 124 °C.

`CN(C)CCNC(=O)c1ccc(-c2ccc3nnn(Cc4ccc5ncccc5c4)c3n2)cc1` returned a melting point of 122 to 125 °C.

Turning to `CC(C)OP(=O)(OC(C)C)C(=CC=Cc1ccccc1)P(=O)(OC(C)C)OC(C)C`, the melting point fell in the range of 103 to 104 °C.

As for `N#Cc1c(N)nc2ccc(N3CCN(Cc4ccccc4)CC3)cc2c1Cl`, the melting point worked out at 206 °C.

Regarding `CN1CCN(c2cc3c(cc2F)c(=O)c(C(=O)O)cn3Cc2ccccc2)CC1`, the melting point is 266 °C.

With `CC(C)(C)c1cc(CCc2ccccc2NC(=O)N2CCN(C(=O)c3ccccc3)CC2)cc(C(C)(C)C)c1O`, the melting point fell in the range of 207 to 209 °C.

As to `COC(=O)c1ccc2c(c1CBr)OCO2`, the melting point fell in the range of 56 to 58 °C.

Consider `CN1CCC(Sc2ccc3[nH]c(=O)n(C)c3c2)CC1`, for which the melting point was 196 to 198 °C.

`N#CCCN1c2ccccc2Sc2ccccc21` came in with a melting point of 158 to 160 °C.

With `CC1(C)Oc2ccc([N+](=O)[O-])cc2[C@@H](O)[C@@H]1Br` (relative stereo), the melting point lay in the range of 114 to 116 °C.

In turn, `Cc1cc(Cl)ccc1N=CNN=C(c1ccc(Cl)cc1)c1ccc(OS(C)(=O)=O)cc1` registered a melting point of 60 to 100 °C.

As for `CCCCCCN1CCC(n2nc(-c3c(-c4ccccc4)nn4ccccc34)ccc2=O)CC1`, the melting point stood at 106 °C.

`CCc1c(Sc2cc(C)cc(C)c2)n(CC2=CCC(CO)C2)c(=O)[nH]c1=O` (centres undefined) yielded a melting point of 57 to 60 °C.

The molecule `CN1CCN(c2nc3c(cc2F)c(=O)c(C(=O)O)cn3CCF)CC1` registered a melting point of 224 to 226 °C.

Take `CCCCN(Cc1ccc(-c2ccccc2-c2nnn[nH]2)cc1)c1ncccc1C(=O)O`: the melting point fell in the range of 203 to 205 °C.

As for `CCCc1ccc(S(=O)(=O)n2c(CCC(=O)OC)cc3cc(Cl)ccc32)cc1`, the melting point lay within 85 to 88 °C.

As for `CCC(C)N1CC(=O)N(C(C)CC)CC1=O` (centres undefined), the melting point fell in the range of 95.5 to 97.5 °C.

`Nn1c(=O)c2cc(F)c(Cl)nc2n(C2CC2)c1=O` returned a melting point of 192 to 194 °C.

Molecule `O=CC1CC1Nc1nccc(-n2nnc3ccccc32)n1` (centres undefined) came in with a melting point of 99 to 100 °C.

Take `Cc1c(C)c2c(c(C)c1O)CCC(C)(CNCCc1ccc(N=C(N)c3cccs3)cc1)O2` (centres undefined): the melting point is over 230 °C.

Regarding `O=C1Nc2cccnc2N(C(=O)NCCN2CCCCC2CN2CCCC2)c2ccccc21` (centres undefined), the melting point stood at 198 °C.

`CC(=CC=Cc1ccccc1)C(=O)C1OCC(C)(C)CO1` came in with a melting point of 122 to 125 °C.

`COc1ccc(C2CCOCC2)c2sc(NC(=O)N3CCOCC3)nc12` yielded a melting point of 217 to 220 °C.

`Cc1cccc(C(=O)c2ccc(Cl)cc2)c1O` displayed a melting point of 55 to 58 °C.

The molecule `CC(C)(C)C12OOC1(c1ccc(C(=O)N3CCOCC3)c(O)c1)OCC2(C)C` (centres undefined) gave a melting point of 114 to 116 °C.

Regarding `CCCCOc1c(C(=O)O)n(CC(C)C)c(=O)c2ccc(OCc3ccccc3)cc12`, the melting point fell in the range of 151 to 152 °C.

For `CC(=O)OC1(Cc2ccccn2)C(=O)N(N2CCOCC2)c2ccccc21` (centres undefined), the melting point lay within 107 to 110 °C.

`CCOC(=O)CNC(=O)N(CC(=O)OCC)Cc1ccccc1` registered a melting point of 64 to 65 °C.

Take `CCOc1cc(C(CC(=O)OC)N2C(=O)c3ccc(N)cc3C2=O)ccc1OC` (centres undefined): the melting point was 65 to 67 °C.

On to `COc1cc(COc2nn(Cc3ccccc3)cc2/C=C/C(=O)O)ccc1OCc1nc(-c2ccco2)oc1C`, for which the melting point lay in the range of 175 to 176 °C.

In turn, `Cc1ccc(C(F)(F)c2ccc(C3CCCN4CCS(=O)(=O)N=C34)cc2)cc1` (centres undefined) displayed a melting point of 190 to 191 °C.

The molecule `N#Cc1ncccc1Oc1cccc(F)c1` showed a melting point of 92 to 93 °C.

The molecule `Clc1nc(C2CC2)nc(N2CCOCC2)n1` came in with a melting point of 99 to 100 °C.

`Cc1ccc(/C=C/c2c(C(C)C)nc(C(C)C)c(CO)c2-c2ccc(F)cc2)cc1` came in with a melting point of 131 to 133 °C.

Turning to `CC(C)(C)NC(=S)Nc1cc(F)cc(F)c1`, the melting point lay within 140 to 142 °C.

The molecule `CCc1cccc(-c2nc(C3CCCCC3)n(C)n2)n1` returned a melting point of 79.2 °C.

In turn, `Cc1nc(N2CCN(Cc3ccc(F)cc3)C2=O)sc1C(=O)NCc1ccccc1` gave a melting point of 192 to 193 °C.

In turn, `CCOC(=O)c1cc2c(n1CCN)CCCC2` came in with a melting point of 102 to 104 °C.

As to `COC(=O)C1Cc2c([nH]c3ccccc23)CN1C(=S)Sc1cccs1` (centres undefined), the melting point is 150 to 152 °C.

In turn, `CC(=O)OC1CSC(Oc2ccc3nc(C)sc3c2)C(OC(C)=O)C1OC(C)=O` (centres undefined) returned a melting point of 160 °C.

In turn, `CCOC(=O)c1c[nH]cc1-c1cccc(F)c1` registered a melting point of 120 to 122 °C.

For the molecule `CCC(=O)c1ccc(-c2cc(NC(=O)OC(C)(C)C)ccc2C)c(C)c1`, the melting point came out at 119 °C.

Consider `CCOC(=O)Cn1cc(CC(=O)O)c2ccccc21`, for which the melting point was determined as 138 °C.

`COc1cccc(CCNC(=O)N2CCC(Nc3ccc(CCNC[C@H](O)COc4ccc(O)cc4)cc3)CC2)c1` yielded a melting point of 103 to 108 °C.

Consider `CCOC(OCC)c1cccc2c1Sc1ccccc1N2C`, for which the melting point was in the range of 44.6 to 46.2 °C.

In turn, `CC(=O)N1C(C(=O)NC2CCC(O)CC2)C(c2cccc(Cl)c2F)C2(C(=O)Nc3cc(Cl)ccc32)C1CC(C)(C)C` (centres undefined) displayed a melting point of 220 °C.

In turn, `Cc1oc(-c2ccccc2)nc1COc1ccc(COc2ccc(CCC(=O)O)cc2)cc1` showed a melting point of 177 to 178 °C.

Molecule `CCN(CC)C(=O)c1c(OC)ccc2cc(-c3ccc(OC)cc3)ccc12` returned a melting point of 118 to 120 °C.

`N#Cc1ccc(N=CNc2ccc(C#N)cc2)cc1` came in with a melting point of 214 to 217 °C.

The molecule `Cn1c([N+](=O)[O-])cnc1C1=NOC2CCCCC12` (centres undefined) yielded a melting point of 119 to 121 °C.

The molecule `C=CCNc1c(C#N)cnc2cn[nH]c12` yielded a melting point of 249 to 252 °C.

Regarding `NCCNC(=O)COc1ccc(C2=NNC(=O)CC2)cc1Cl`, the melting point is 168 to 170 °C.

Regarding `CC1(c2ccc(-c3ccc(Cl)cc3)cc2)CC(=O)NN1` (centres undefined), the melting point lay within 214 to 215 °C.

The molecule `CC(C)=Cc1cn(-c2c(Cl)cc(C(F)(F)F)cc2Cl)nc1C#N` had a melting point of 72 to 74 °C.

For the molecule `CCOc1ccc(F)c(CCN=C(N)Nc2ccc(Br)cn2)c1Cl`, the melting point fell in the range of 169 to 172 °C.

The molecule `NC(=O)n1ccc(-c2ccc(Oc3ccc(F)cc3)cc2)n1` had a melting point of 141 to 143 °C.

On to `CC(C)COC(=O)c1ccc(OCC(=NO)c2ccc3c(c2)C(C)(C)CCC3(C)C)cc1O`, for which the melting point was found to be 96 °C.

For the molecule `CCc1cc(-c2[nH]c3ccccc3c2CC)cc(CC)c1O`, the melting point lay within 96.3 to 96.7 °C.

Take `COc1ccc(Br)cc1S(=O)(=O)NC(C)(C)CO`: the melting point stood at 168 °C.

For the molecule `N#Cc1c(N2CCNCC2)c2cc(F)ccc2n(Cc2ccc(F)cc2)c1=O`, the melting point is 240 °C.

As for `COc1ccccc1-c1ccc2c(c1)S(=O)(=O)NC(C1CCCCC1)N2` (centres undefined), the melting point was in the range of 219 to 222 °C.

For `CC(C)c1cccc(C(C)C)c1NC(=O)CN`, the melting point lay within 88 to 95 °C.

Take `O=C1c2ccccc2C(=O)N1CCCSc1ncco1`: the melting point turned out to be 101 °C.

For the molecule `O=C1N(c2ccc(F)cc2)c2ccccc2C1(O)c1cc2c(cc1O)OCCO2` (centres undefined), the melting point was in the range of 195 to 200 °C.

Take `COC(=O)c1cc(CS(=O)(=O)c2ccccc2)cnc1C1=NC(C)(C(C)C)C(=O)N1C(=O)c1ccccc1` (centres undefined): the melting point lay in the range of 162 to 166 °C.

On to `Cc1ccc(C(=S)Oc2ccc(C(=O)O)cc2)cc1C12CC3CC(CC(C3)C1)C2`, for which the melting point fell in the range of 276 to 277 °C.

In the case of `CNC(=O)c1cn(C)nc1[N+](=O)[O-]`, the melting point lay in the range of 163 to 165 °C.

`N#Cc1cccc(-n2c(=O)c(CCCc3ccncc3)cc3cccnc32)c1` showed a melting point of 202 to 204 °C.

For `CCOC(=O)C(=O)c1ccc(C)[nH]1`, the melting point is 72 to 74 °C.

For the molecule `Nc1nc2ccccc2c2c1ncn2CCOCCCc1ccccn1`, the melting point is 138 to 140 °C.

Consider `ON(Cc1ccccc1)Cc1ccc(CN(O)Cc2ccccc2)cc1`, for which the melting point was in the range of 160 to 163 °C.

The molecule `O=C(NCc1ccc2c(c1)OCO2)c1ccc(C(=O)NCc2ccc3c(c2)OCO3)s1` gave a melting point of 207 to 209 °C.

Take `N#CN=C(Nc1ccc(C#N)c(Br)c1O)Nc1cccc2c1OCO2`: the melting point was 164 to 165 °C.

Turning to `CCC(CCOC)n1cc(Cl)nc(N2CCc3cc(Cl)cc(Cl)c32)c1=O` (centres undefined), the melting point was 95 to 97 °C.

For the origin of these results see a melting point compilation (Tetko et al.; mined from patent text by program, amines drawn as free bases though some values may be those of a salt).
